Results: article PMC13252604, “First Generation Proteolysis Targeting Chimeras (PROTACs) for the Treatment of Progeria” (Advanced Science, 2026)

Assays:
[1] = test system: Lmna^G609G/G609G fibroblasts; experiment: Immunocytofluorescence (Ki‐67, lamin A/C) in mouse progeroid cells; assay type: cell-based; settings: 5 µM
Method: Confocal fluorescence microscopy images are representative of 2 independent experiments. […] Representative cropped immunoblots are shown. […] MW, molecular weight (in kDa) markers. (C) PROTAC 2 decreases senescence‐associated β‐galactosidase (SA‐βgal) activity, interleukin (IL) 1α and p16 senescent markers. Lmna^G609G/G609G (G609G) or Lmna^+/+ (WT) fibroblasts were incubated with vehicle or compound 2 (5 µM). […] Data were analysed using one‐way ANOVA followed by Dunnett's post–hoc test. ^*, p < 0.05; ^**, p < 0.01, ^***, p < 0.001, ^****, p < 0.0001 vs G609G cells. […]
compound exposure. […]
TBS-T and proteins were visualized by quimioluminiscence (GE Healthcare […]
For immunocytofluorescence studies, mouse or human progeroid cells previously incubated with compound of interest or DMSO were seeded at a density of […] or 1.5 x 10^4 cells/well over 12 mm diameter slide covers respectively in a 12-well plate and were incubated for 24 h at 37 ᵒC with compound of interest. Cells were fixed with 4% formaldehyde (Ki67, pH2AX) or cold methanol (Lamin A/C, H3K9Me3) from Sigma-Aldrich during 20 min and permeabilized with PBS containing 0.2% Triton X-100 (PBS-T, Sigma-Aldrich). Then, cells were blocked with TBS 2% BSA during 30 min at rt, followed by incubation o.n. with anti-lamin A/C (Santa Cruz Biotechnology, SC-376248, […]
at 4 °C. After that, cells were washed with TBS (1x) and incubated in absence of light for 1 h with fluorescent goat anti-mouse (1:500, Alexa Fluor 488, Life Technologies) diluted in TBS with 2% BSA. Finally, cells were washed with TBS (2x) and the slide cover was carefully mounted with Immumount (Thermo Scientific). The visualization was carried out using confocal microscopy (Olympus IX83) equipped with a 40X oil immersion lens and the appropriate excitation and emission filters at the microscopy UCM facilities. […]
7. Senescence-associated (SA) β-galactosidase activity. […]

[2] = test system: overall protein abundance; experiment: Global proteomic analysis; assay type: cell-based; settings: 5 µM compound vs vehicle, three independent samples each
Description: (A) Input IP .LM123L T-!=> V,!=>
MW Veh Cpd 2 Cpd 2 Veh !!!!!"#$$#B -45665 T4--8 -4;?,;
Progerin !!!!!E#)*+,- ,V4:-Ise::::: :etpoooomX,?4?V:enst9mmqo,848; !?#$B?CDEFCBG+I-+G.BLG+ […]
!!!!!*+,- 84;66L<-,VI9e::::::esnnsmqmXV4-;VL<-,?:estm9XpoX?4T-?L<-,8 FFFFF0BNNB$ :em9Xn […]
IgG heavy chain Iqep:m:p ne:qmppo:m :esmpqtmpn FFFFFSB#T89:I9em:m […]
50- Iqe9mt:: :eoX9ppnnm :eoqpq9s9p X9YF8=F>.-B2?E+FE??+E?@BBCA
FFFFF0BNNB$ rrrFNBF:eqoqs
Cpd 2 Veh FFFFFSB#T89:rrr […]
Vehicle .LM123L T-!=>(%C" V,!=> […]
50- !!!!!C#' -4TT8VLamin C -4T:T; (%$$-4-:?5T '()*+
!!!!!E#)*+,- ,V4:-β-Actin ,?4?V ,848; D(%
37- !!!!!*+,- 84;66L<-,V V4-;VL<-,? ?4T-?L<-,8 ,-)*+ […]
Abundance Ratio (log2): Ve h / Cpd 2
Supporting Figure S2. Ternary complex formation, progerin engagement and global selectivity of compound 2. (A) Progeroid […]/G609G fibroblasts treated with vehicle (0.1% DMSO) or compound 2 (5 µM) were subjected to immunoprecipitation with an anti-CRBN antibody and then immunoblotted with an anti-progerin antibody. Bar graph represents mean±sem of 2 independent experiments. (B) Representative progerin immunoblotting of the soluble fraction of LmnaG609G/G609G cell homogenates treated with […]
indicated temperature. (C) Thermal denaturation curves of progerin in the presence of vehicle (black) or compound 2 at 10 µM (red, DTm=0.7±0.1 °C) or 25 µM (blue, […]
of compound 2 (IC50=7±1 µM). […]

[3] = Stability in cell culture; assay type: in vitro ADME
Description: TABLE 1 Pharmacokinetic parameters of PROTAC 2. | column: Stability (hours) ^b / Cell culture

For `CC1(C)Oc2cc3oc(=O)ccc3cc2C[C@@H]1OC(=O)CCCCCNc1cccc2c1C(=O)N(C1CCC(=O)NC1=O)C2=O` (some centres unmarked) [compound 2], the “cell proliferation (Ki‐67)” value [1] was “significantly increases cell proliferation”, the “nuclear cell membrane thickness” value [1] was “decreases nuclear cell membrane thickness” and the “progerin accumulation in the nuclear membrane” value [1] was “decreases progerin accumulation in the nuclear membrane”. The “alterations in overall protein abundance (global proteomics)” value [2] was “did not identify significant alterations in overall protein abundance” and the “Stability (hours) Cell culture” value [3] was >24 h.
